Test results taken from patent publication US5609749A, “Electrochemical assay method with novel p-phenylenediamine compound” (Mochida Pharmaceutical Co., Ltd., priority 1993, dated 1997).

What was measured:
[1] = Measurement of vapor pressures (gas flow method); type: physicochemical; conditions: for vapor pressure: gas flow method
Experimental: Measurement of vapor pressures of p-phenylenediamine(PPD), N,N,N',N'-tetramethyl-p-phenylenediamine (TMPD), TEPD, TCPD, THEPD and TDHPD
The PPD(manufactured by Wakoh Junyaku K.K), TMPD (manufactured by Tokyo Kasei K.K), further, TEPD, TCPD, THEPD and TDHPO obtained in the course of the procedures of Synthesis Examples 1 to 4 were checked for their vapor pressures.
Vapor densities (amount of evaporation/volume) of the solid samples (PPD, TMPD, TEPD, TCPD, THEPD and TDHPD) were measured by contacting each sample heated to a predetermined temperature with a stream of carrier gas (nitrogen) and saturating the sample with vapor, and vapor pressures of TEPD and THEPD were calculated from the data on an assumption that the vapor follows the law of ideal gas (gas flow method). The vapor density was calculated by measuring evaporation rate (loss rate) of each sample using an electric balance, and the carrier gas flow rate using a flow meter.
The vapor pressure was calculated from the vapor density based on the following formula.
In the above formula, P represents vapor pressure (mmHg), k represents evaporation rate (mg/min), v represents carrier gas flow rate (ml/min), k/v represents vapor density (mg/ml), M represents molecular weight of each sample, π represents pressure of the system (mmHg) and V represents molar volume of carrier gas (l/mol).

hCG = assay: Measurement of hCG in whole blood with specific binding assay device (MEDIA method), freeze-dried electron mediator member; parameters: species or system human; conditions: hCG 0 vs 1,000 IU/l whole blood, -150 mV
Experimental: The specific binding assay device shown in FIGS. 2 and 3 was constructed, and concentration of hCG in samples was measured using the device. The HRPO-HM81 obtained in the above step (1) was diluted with a phosphate buffer (pH 6.0) containing 5% normal rabbit serum (NRS), 10% saccharose and 0.1M NaCl to prepare a solution having a peroxidase activity of 0.63 U/ml. Next, 140 μl of the solution was spotted on a circular filter paper piece of 12 mm in diameter punched out from glass fiber filter paper (GA100, manufactured by Advantech Toyo) and then freeze-dried to obtain an HRPO-HM81 freeze-dry member to be used as the labeled antibody-impregnatedmember 14. The THEPD obtained in Synthesis Example 3 was dissolved in a phosphate buffer (pH 6.0) containing 0.1M NaCl to prepare a 5.0 mM solution. Next, 140 μl of the solution was spotted on a circular filter paper piece of 12 mm in diameter punched out from glass fiber filter paper (GA100, manufactured by Advantech Toyo) and then freeze-dried to obtain a THEPD freeze-dry member to be used as the electron mediator-impregnated member 16 of the present invention. The TEPD obtained in Synthesis Example 1 was dissolved in a phosphate buffer (pH 6.0) containing 1M NaCl to prepare a 5.0 mM solution. […]

[2] = Current response of electron mediators in buffer solution and in the presence of blood, urine
Text: Of these oxidation-reduction enzymes, glucose oxidase (GOD) is used in enzyme electrodes for the measurement of blood glucose level and horseradish peroxidase (HRPO) is used as a label enzyme in specific binding assays such as DNA hybridization, immunoassay and the like. […] However, these electron mediators were not able to show stable and reproducible response in the presence of blood, urine and the like because of the interfering substances contained therein.

[3] = Dry chemistry type chips: filter paper impregnated with mediator solution and dried on an electrode; conditions: mediator dried on cellulose or glass filter paper, dissolved by liquid sample
Text: In addition, the present inventors have attempted to prepare a dry chemistry type chips by impregnating a piece of cellulose filter paper or glass filter paper with a solution of HQ, PPD, TMPD or TEPD and drying the resulting piece on an electrode (by freeze-drying, vacuum drying, air-drying or the like) or arranging it on an electrode after drying so that the impregnated electron mediator can dissolve in a liquid sample at the time of measurement.

SMILES | vapor pressure ([1]; at 25° C.) | electric current response to hCG concentration (hCG) | current response ([2]; in a buffer solution) | response in the presence of blood, urine and the like ([2]; interfering substances in blood, urine) | current response and characteristics of dry chemistry type chips [3] | vapor pressure lower than that of TEPD ([1]; at 25° C.) | property in drying (freeze-drying, vacuum drying, air-drying) and stability of dried states ([1]; compared with PPD, TMPD and TEPD, concluded from vapor pressures)
CCN(CC)c1ccc(N(CC)CC)cc1.Cl.Cl [TEPD, N,N,N',N'-tetraethyl-p-phenylenediamine dihydrochloride, reference compound] | 4.2×10^-4 mmHg | the electric current did not increase in response to the concentration of hCG | excellent current response | interference | low current response and extremely poor characteristics |  | 
Cl.Cl.OCCN(CCO)c1ccc(N(CCO)CCO)cc1 [THEPD, N,N,N',N'-tetrakis-(2'-hydroxyethyl)-p-phenylenediamine dihydrochloride] | 1.3×10^-6 mmHg | the reduction current became high in response to the concentration of hCG |  |  |  | about 300 times | superior to those of PPD, TMPD and TEPD
